Results: patent US20260008776A1 (HANGZHOU POLYMED BIOPHARMACEUTICALS, INC., priority 2023, published 2026)
Where two headings read alike, the source gives them in different places.

Columns and labels:
[1] = Solubility test of salts in pH buffers, water and physiological solutions; format: physicochemical
Method: The solubility of dominant salts in different pH buffers, water, and physiological solutions was determined. The specific steps for solubility determination are as follows: […] The vials were sealed, transferred to a magnetic stirrer, and maintained at 25° C. with a stirring rate of 500 rpm for 24 hours. The dissolution status in sample vials was recorded during the test. After 24 hours, approximately 1 mL of the suspension was filtered, and the filtrate was collected for solubility test via HPLC analysis. The pH value of the filtrate sample was measured using a pH meter.

[2] = format: physicochemical
Method: The glass dishes or glass vials were then placed in different environments of the constant temperature and humidity chamber, with conditions including: illumination: 4500±500 Lux (open); high temperature: 60° C.

[3] = Pharmacokinetic test in rats, oral gavage; format: in vivo, Sprague-Dawley rats
Method: (§1) Subsequently, 976 μL of Tween 80 was added and vortexed for 30 seconds, followed by the addition of 488 μL of Kolliphor HS15 (Kolliphor HS15 was used after heating and melting at 50° C.) and vortexed for 30 seconds. Finally, 7808 L of saline was added and vortexed for 30 seconds, followed by ultrasonication for 10 seconds to remove bubbles. The resulting administration preparation was a suspension.
as §1, with “1034” for “976”, “517” for “488”, “8270 μL” for “7808 L”
Species and Strain: Sprague-Dawley rats (SD rats) (Zhejiang Vital River Laboratory Animal Technology Co., Ltd.) • Animal Grade: SPF level
Planned initial body weight for administration: Male 200-250 g. Actual animal weights will be listed in the raw records. • Number and Gender of Animals: 3 (3 per group), male
Based on measured body weights, animals with similar weights were divided into groups of 3 animals each. Blank group animals were used for the collection of blank biological matrices.
• Administration route: Oral gavage • Administration volume: 10 mL/kg • Administration frequency: Single dose • Administration method: The test sample was administered orally via gavage using an appropriate syringe and gavage tube. When using a 2 mL or 5 mL syringe, the administration volume was recorded to one decimal place. When the minimum graduation value of the syringe was 0.2 mL and the administration volume was between two graduation marks, the higher volume was selected for administration.
Sample collection: Approximately 0.30 mL of whole blood was collected from the orbital vein of Group 1 animals at each time point.
The experimental animals were fasted for 12 hours before administration, with free access to water. Blood samples were collected from Group 1 animals (oral gavage group) at 5 min, 15 min, 30 min, 1 h, 2 h, 4 h, 6 h, 8 h, and 24 h after administration.
Sample processing: The collected venous blood was immediately transferred to EDTA-Na2-coated EP tubes (stored in a refrigerator or in an ice box with crushed ice at 2-8° C. prior to use), inverted at least 5 times for thorough mixing, and temporarily stored in an ice box with crushed ice. The collected whole blood was centrifuged at 2000 g for 10 min under 2-8° C. conditions within 2 h to separate plasma, which was then placed in newly labeled centrifuge tubes and stored at −20° C.
The pharmacokinetics group of the Department of Pharmacology and Toxicology conducted the analysis and measurement of all samples, followed by data summarization. Plasma concentration data were analyzed using the pharmacokinetic data analysis software WinNonlin. Non-compartmental analysis (NCA) was employed to calculate pharmacokinetic parameters such as t1/2, Cmax, Tmax, Vd, CL, AUC0-24, and F. The detailed results are shown in the following table: […]

[4] = High Relative Humidity (RH = 90 ± 5%, Open, 25° C.), 5 Days
[5] = High Relative Humidity (RH = 90 ± 5%, Open, 25° C.), 11 Days
[6] = High Temperature (60° C., Sealed), 5 Days
[7] = High Temperature (60° C., Sealed), 11 Days
[8] = Strong Illumination (Open), 5 Days
[9] = Strong Illumination (Open), 11 Days
[10] = rats, PO, 40 mpk, single dose, plasma

For `CC(C)(O)CCn1cc2cc(NC(=O)c3coc(-c4ccnc(C(F)(F)F)c4)n3)c(C(C)(C)O)cc2n1.O=S(=O)(O)O` [crystal form A of sulfate salt], which “Solubility at 25° C.” value ([1]; Buffer pH = 1.0, 24 hours) is on record?
Its value is 179.03 µg/mL.

And the “Solubility at 25° C.” value ([1]; Buffer pH = 6.8, 24 hours)?
Its value is “<LOD”.

And the “Solubility at 25° C.” value ([1]; FaSSIF (pH = 6.5), 24 hours)?
Its value is “<LOD”.

What about the “Solubility at 25° C.” value ([1]; FeSSIF (pH = 5.0), 24 hours) of the same molecule?
Its value is 19.45 µg/mL.

What about the “Solubility at 25° C.” value ([1]; SGF (pH = 1.2), 24 hours) of the same molecule?
Its value is 2.88 µg/mL.

What about the “Solubility at 25° C.” value ([1]; Water, 24 hours) of the same molecule?
The value was 1.34 µg/mL.

And the “Color Change” value [2, 4]?
The value was “Turn Yellow”.

What about the Purity [2, 4] of the same molecule?
The Purity was 99.08%.

And the “Salt Type” value [2, 4]?
Its value is “No Change”.

And the Purity [2, 5]?
Its Purity is 99.14%.

And the “Salt Type” value [2, 5]?
The value was “No Change”.

What about the “Color Change” value [2, 6] of the same molecule?
Its value is “Turn Yellow”.

What about the Purity [2, 6] of the same molecule?
Its Purity is 99.74%.

What about the “Salt Type” value [2, 6] of the same molecule?
The value was “No Change”.

What about the “Color Change” value [2, 7] of the same molecule?
The value was “Turn Yellow”.

What about the Purity [2, 7] of the same molecule?
Its Purity is 98.39%.

And the “Salt Type” value [2, 7]?
Its value is “No Change”.

What about the Purity ([2]; Initial State) of the same molecule?
The Purity was 99.12%.

And the “Color Change” value ([2]; Initial State (colour))?
The value was “White”.

What about the “Color Change” value [2, 8] of the same molecule?
The value was “No Change”.

What about the Purity [2, 8] of the same molecule?
Its Purity is 99.35%.

What about the “Salt Type” value [2, 8] of the same molecule?
The value was “No Change”.

What about the “Color Change” value [2, 9] of the same molecule?
Its value is “No Change”.

What about the Purity [2, 9] of the same molecule?
The Purity was 99.26%.

And the “Salt Type” value [2, 9]?
Its value is “No Change”.

Which “Plasma concentration and exposure compared with the free base” value ([3]; SD rats, single oral gavage, 4 mg/mL suspension, 10 mL/kg) does the source give for `CC(C)(O)CCn1cc2cc(NC(=O)c3coc(-c4ccnc(C(F)(F)F)c4)n3)c(C(C)(C)O)cc2n1.Cl` [hydrochloride salt] here?
The value was “significantly increase”.

What about the AUC0-24 [3, 10] of the same molecule?
Its AUC0-24 is 27508.69 ng·h/mL.

And the Cmax [3, 10]?
The Cmax was 5117.67 ng/mL.
